Where a name gives a salt, the structure may show the parent alone. Read-outs that look alike come from different tables or passages of the source.
Tests used:
[1] = system: subjects with idiopathic RLS; test: Clinical trial: PLM during Wakefulness Index (PLMWI) by actigraphy during SITs; assay type: in vivo, human; settings: highest dose (247 μg) nasal spray
Description: This example relates to a randomized, double-blind, placebo-controlled parallel-group proof-of-concept trial which assessed the efficacy, safety and tolerability of ascending doses of rotigotine nasal spray for the treatment of acute symptoms of RLS in subjects with idiopathic RLS. This was evaluated by subject rating of severity of symptoms (sensory symptoms) on a numeric symptoms severity scale and by the Periodic Limb Movement (PLM) index (motor symptoms) as measured by actigraphy following triggering of symptoms by immobilization. […] Subjects randomized to the “placebo group” received a single delivery of matching placebo nasal spray on each treatment day. • 1. […] PLM during Wakefulness Index (PLMWI) for each SIT and for specified time sections of each SIT (PLM during awake epochs/h, motor symptoms) was evaluated based on PLM measurements by means of actigraphy, recorded over the entire duration of the SIT period (pre dose and post dose SIT-0 to SIT-6, approximately 4.5 hours). RLS is usually associated with involuntary PLM occurring in wakefulness (PMLW) and sleep (PMLS) in 80-85% of RLS patients. […] A central reader was used to standardize PLM evaluation of the actigraphy measurements performed during the SIT period. […]

[2] = buccal, nasal or rectal administration to rats as HCl salt, compared with oral dosing; cited from earlier work
[3] = effect of glycerol, in vitro permeation assays; cited from earlier work
[4] = system: subjects with idiopathic RLS; test: Clinical trial: subject-rated severity of RLS sensory symptoms during Suggested Immobilization Tests; assay type: in vivo, human; settings: for maximum mean reduction from baseline in severity scores: single delivery, 0-10 scale; for onset of action after administration: doses of 124 μg and 247 μg, intranasal
Description: This example relates to a randomized, double-blind, placebo-controlled parallel-group proof-of-concept trial which assessed the efficacy, safety and tolerability of ascending doses of rotigotine nasal spray for the treatment of acute symptoms of RLS in subjects with idiopathic RLS. This was evaluated by subject rating of severity of symptoms (sensory symptoms) on a numeric symptoms severity scale and by the Periodic Limb Movement (PLM) index (motor symptoms) as measured by actigraphy following triggering of symptoms by immobilization. […] Subjects randomized to the “placebo group” received a single delivery of matching placebo nasal spray on each treatment day. […] It has been shown that immobilization results in worsening of both motor and sensory components of RLS symptoms. […] On each treatment day, the trial medication was administered 30 minutes after the start of the pre-dose SIT-0 or as soon as the subject's severity score reaches 5 on the numeric symptom severity scale, whichever is sooner. The last scoring prior to dosing is defined as the baseline value for each individual subject. • 1. […] PLM during Wakefulness Index (PLMWI) for each SIT and for specified time sections of each SIT (PLM during awake epochs/h, motor symptoms) was evaluated based on PLM measurements by means of actigraphy, recorded over the entire duration of the SIT period (pre dose and post dose SIT-0 to SIT-6, approximately 4.5 hours). Severity of symptoms in the legs was assessed by subject ratings using a numeric symptoms severity scale at the start of each pre-dose and post-dose SIT-0 to SIT-6 and every 5 minutes during each SIT. Scores on the scale range from 0 (‘no symptoms’) to 10 (‘very severe’).

[5] = orally (perorally) administered, first-pass metabolism in the liver; cited from earlier work
[6] = Comparative storage test of aqueous rotigotine HCl solution with/without α-cyclodextrin; assay type: physicochemical; settings: storage at 60° C. for 8 weeks, solution of 1.6 mg/ml with α-cyclodextrin
[7] = Maximum solubility in aqueous cyclodextrin solution at room temperature, isocratic HPLC; assay type: physicochemical; settings: aqueous solution and aqueous solutions containing α- or β-cyclodextrin
Description: The concentration was determined by isocratic HPLC analysis. HPLC column LiChroCART 75×4 mm, Superspher 60 RP-select B 5 μm (Merck), column temperature: 30° C., mobile phase:water/acetonitrile/methanesulfonic acid (65/35/0.05 v/v/v), flow rate: 2 ml/min, injection volume: 50 μl, detection at 220 nm, retention time approx. 1.5 min. The concentration was determined by use of an external reference solution having known concentration.

SMILES	decrease from baseline in the PLMWI [1]	bioavailability (in words) [2]	absorption through bovine nasal mucosa (in words) [3]	maximum mean reduction from baseline in severity scores ([4]; 62 μg nasal spray)	maximum mean reduction from baseline in severity scores ([4]; 124 μg nasal spray)	maximum mean reduction from baseline in severity scores ([4]; 247 μg nasal spray)	decrease in the mean severity scores ([4]; doses of 124 μg and 247 μg nasal spray, SIT-1 through SIT-6, 0-10 scale)	onset of action after administration [4]	bioavailability (in words) [5]	decrease in the rotigotine concentration [6]	solubility (in words) [7]
CCCN(CCc1cccs1)[C@H]1CCc2c(O)cccc2C1 [rotigotine, (−)-5,6,7,8-tetrahydro-6-[propyl[2-(2-thienyl)ethyl]amino]-1-naphthol]	approximately 10 points	improved bioavailability	enhance absorption	−0.8 points	−2.0 points	−2.3 points	approximately 2 points	10 min	close to zero		
CCCN(CCc1cccs1)[C@H]1CCc2c(O)cccc2C1 [Rotigotine HCl]								10 min		-0.07 mg/mL	
CCCN(CCc1cccs1)[C@H]1CCc2c(O)cccc2C1 [Rotigotine base]											practically insoluble

Source: patent US20080274061A1, “Method for Treating a Restless Limb Disorder” (priority 2007, published 2008)
